Assays:
[1] = target: T1, Alpha-2A adrenergic receptor (Homo sapiens, UniProt P08913)
T1 sequence (P08913 whole entry): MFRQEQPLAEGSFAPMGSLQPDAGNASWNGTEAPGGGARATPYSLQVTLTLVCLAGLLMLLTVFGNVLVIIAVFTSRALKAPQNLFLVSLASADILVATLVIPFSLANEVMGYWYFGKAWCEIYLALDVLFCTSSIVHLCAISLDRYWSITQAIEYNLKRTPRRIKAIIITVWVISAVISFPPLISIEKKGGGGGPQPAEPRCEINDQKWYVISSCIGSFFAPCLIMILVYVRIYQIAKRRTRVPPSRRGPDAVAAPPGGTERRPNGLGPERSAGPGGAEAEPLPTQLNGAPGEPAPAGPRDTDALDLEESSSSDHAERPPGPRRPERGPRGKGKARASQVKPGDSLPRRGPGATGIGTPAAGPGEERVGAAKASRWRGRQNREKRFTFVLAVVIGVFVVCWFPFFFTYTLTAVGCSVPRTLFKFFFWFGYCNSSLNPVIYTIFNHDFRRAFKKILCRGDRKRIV

D(1A) dopamine receptor = D(1A) dopamine receptor (Homo sapiens, UniProt P21728)
Sequence of D(1A) dopamine receptor (P21728 whole entry): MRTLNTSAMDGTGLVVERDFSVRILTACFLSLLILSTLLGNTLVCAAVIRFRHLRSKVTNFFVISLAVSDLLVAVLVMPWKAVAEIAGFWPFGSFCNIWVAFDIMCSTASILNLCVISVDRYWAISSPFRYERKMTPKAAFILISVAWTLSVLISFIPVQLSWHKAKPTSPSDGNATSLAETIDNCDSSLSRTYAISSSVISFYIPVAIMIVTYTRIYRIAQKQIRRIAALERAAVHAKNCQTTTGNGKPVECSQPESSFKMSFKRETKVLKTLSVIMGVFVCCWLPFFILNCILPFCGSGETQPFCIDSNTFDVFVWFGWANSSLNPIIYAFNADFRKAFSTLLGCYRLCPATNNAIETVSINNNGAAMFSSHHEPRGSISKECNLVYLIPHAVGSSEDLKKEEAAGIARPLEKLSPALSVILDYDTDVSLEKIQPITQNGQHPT

[2] = target: T2, Muscarinic acetylcholine receptor M2 (Homo sapiens, UniProt P08172)
T2 sequence (P08172 whole entry): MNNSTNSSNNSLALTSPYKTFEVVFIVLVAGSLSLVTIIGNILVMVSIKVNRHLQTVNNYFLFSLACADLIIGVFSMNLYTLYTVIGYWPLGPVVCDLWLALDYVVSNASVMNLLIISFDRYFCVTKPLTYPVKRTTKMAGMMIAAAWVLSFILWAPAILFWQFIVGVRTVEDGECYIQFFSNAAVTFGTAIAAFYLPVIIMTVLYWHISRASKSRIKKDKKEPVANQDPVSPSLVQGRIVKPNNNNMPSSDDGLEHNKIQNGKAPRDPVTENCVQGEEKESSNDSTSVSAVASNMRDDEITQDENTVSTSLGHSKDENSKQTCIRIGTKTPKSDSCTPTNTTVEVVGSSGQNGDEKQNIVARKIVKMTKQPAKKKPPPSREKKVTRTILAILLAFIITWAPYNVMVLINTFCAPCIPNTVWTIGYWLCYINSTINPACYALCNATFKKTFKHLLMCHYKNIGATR

[3] = target: T3, 5-hydroxytryptamine receptor 1A (Homo sapiens, UniProt P08908)
T3 sequence (P08908 whole entry): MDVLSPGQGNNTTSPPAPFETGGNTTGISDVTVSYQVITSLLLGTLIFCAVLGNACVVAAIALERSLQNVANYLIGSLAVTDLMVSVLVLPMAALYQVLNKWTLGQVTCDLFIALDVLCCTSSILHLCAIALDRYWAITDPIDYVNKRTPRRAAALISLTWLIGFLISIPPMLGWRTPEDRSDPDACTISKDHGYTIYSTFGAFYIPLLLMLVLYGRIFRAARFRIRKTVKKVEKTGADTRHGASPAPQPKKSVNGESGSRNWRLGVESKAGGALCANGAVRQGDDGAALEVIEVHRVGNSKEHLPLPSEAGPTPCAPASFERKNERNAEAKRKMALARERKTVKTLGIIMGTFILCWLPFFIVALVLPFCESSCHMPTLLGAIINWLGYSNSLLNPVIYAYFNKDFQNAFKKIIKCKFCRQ

[4] = target: Sodium-dependent serotonin transporter (Homo sapiens, UniProt P31645)
Sequence of Sodium-dependent serotonin transporter (P31645 whole entry): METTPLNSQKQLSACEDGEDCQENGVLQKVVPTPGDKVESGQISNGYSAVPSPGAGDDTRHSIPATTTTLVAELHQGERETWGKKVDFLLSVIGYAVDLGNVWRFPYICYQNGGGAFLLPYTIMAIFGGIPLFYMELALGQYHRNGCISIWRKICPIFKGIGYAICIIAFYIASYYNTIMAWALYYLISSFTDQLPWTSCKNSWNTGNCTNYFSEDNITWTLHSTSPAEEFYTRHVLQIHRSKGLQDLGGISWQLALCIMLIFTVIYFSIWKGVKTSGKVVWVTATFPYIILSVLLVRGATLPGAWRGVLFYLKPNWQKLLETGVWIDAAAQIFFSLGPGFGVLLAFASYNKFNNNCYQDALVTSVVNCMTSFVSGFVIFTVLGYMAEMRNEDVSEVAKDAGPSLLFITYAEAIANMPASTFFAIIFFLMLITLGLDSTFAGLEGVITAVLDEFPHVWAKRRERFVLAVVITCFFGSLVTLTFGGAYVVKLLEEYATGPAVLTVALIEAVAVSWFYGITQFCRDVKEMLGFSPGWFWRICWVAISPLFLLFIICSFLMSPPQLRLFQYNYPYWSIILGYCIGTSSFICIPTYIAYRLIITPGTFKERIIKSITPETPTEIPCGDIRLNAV

[5] = target: Sodium-dependent noradrenaline transporter (Homo sapiens, UniProt P23975)
Sequence of Sodium-dependent noradrenaline transporter (P23975 whole entry): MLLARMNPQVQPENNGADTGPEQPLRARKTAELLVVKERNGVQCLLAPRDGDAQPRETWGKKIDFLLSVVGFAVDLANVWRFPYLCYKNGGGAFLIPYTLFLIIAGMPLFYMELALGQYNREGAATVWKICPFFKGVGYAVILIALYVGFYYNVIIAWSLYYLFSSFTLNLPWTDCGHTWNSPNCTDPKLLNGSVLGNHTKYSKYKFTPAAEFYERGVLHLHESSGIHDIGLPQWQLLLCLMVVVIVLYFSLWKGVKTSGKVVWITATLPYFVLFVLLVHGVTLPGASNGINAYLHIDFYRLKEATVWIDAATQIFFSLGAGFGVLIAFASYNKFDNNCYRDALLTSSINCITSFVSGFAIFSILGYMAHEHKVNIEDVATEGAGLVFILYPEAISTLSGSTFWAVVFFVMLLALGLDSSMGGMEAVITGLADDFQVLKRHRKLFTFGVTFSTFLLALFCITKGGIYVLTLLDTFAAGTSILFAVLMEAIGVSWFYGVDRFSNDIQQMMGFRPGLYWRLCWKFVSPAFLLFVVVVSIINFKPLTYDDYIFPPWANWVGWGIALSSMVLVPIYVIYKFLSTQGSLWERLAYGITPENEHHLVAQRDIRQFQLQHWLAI

Progesterone receptor = target: T4, Progesterone receptor (Homo sapiens, UniProt P06401)
T4 sequence (P06401 whole entry): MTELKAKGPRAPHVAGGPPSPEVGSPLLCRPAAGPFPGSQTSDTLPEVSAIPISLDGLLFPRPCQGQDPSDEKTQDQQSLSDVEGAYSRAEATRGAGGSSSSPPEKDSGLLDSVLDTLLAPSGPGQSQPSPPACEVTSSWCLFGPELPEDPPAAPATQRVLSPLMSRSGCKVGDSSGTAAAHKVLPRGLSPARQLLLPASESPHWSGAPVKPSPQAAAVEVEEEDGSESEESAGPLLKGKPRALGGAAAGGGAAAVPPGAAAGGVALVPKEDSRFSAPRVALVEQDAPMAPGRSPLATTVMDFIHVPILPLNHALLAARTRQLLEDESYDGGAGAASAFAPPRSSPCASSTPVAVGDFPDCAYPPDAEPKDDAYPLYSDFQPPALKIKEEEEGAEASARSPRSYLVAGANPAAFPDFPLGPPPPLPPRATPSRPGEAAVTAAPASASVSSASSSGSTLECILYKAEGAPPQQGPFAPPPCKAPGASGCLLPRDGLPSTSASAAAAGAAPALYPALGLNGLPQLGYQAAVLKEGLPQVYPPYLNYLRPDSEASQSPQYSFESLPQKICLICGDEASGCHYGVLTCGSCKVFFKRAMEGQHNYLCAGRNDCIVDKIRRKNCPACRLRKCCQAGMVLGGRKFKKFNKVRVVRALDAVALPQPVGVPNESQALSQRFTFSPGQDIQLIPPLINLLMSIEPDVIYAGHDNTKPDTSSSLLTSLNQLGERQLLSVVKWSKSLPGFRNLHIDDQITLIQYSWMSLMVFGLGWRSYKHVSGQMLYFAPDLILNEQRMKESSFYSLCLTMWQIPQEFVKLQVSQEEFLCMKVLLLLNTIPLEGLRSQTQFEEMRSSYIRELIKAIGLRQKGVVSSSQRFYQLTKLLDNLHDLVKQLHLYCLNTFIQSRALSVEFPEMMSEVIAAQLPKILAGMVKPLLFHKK

Histamine H3 receptor = Histamine H3 receptor (Homo sapiens, UniProt Q9Y5N1)
Sequence of Histamine H3 receptor (Q9Y5N1 whole entry): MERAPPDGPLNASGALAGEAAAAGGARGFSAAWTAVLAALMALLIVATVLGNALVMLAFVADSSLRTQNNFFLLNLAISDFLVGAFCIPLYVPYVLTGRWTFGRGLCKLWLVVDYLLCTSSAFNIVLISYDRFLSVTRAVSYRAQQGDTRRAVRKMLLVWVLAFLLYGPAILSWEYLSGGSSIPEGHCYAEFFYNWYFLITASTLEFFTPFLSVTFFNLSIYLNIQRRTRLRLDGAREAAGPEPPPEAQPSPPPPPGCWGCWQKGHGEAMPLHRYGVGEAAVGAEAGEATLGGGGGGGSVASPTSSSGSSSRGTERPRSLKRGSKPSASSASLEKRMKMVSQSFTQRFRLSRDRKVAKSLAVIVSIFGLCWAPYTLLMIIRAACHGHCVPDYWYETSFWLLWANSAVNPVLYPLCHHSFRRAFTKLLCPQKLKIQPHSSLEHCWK

[6] = target: T5, Alpha-1A adrenergic receptor (Homo sapiens, UniProt P35348); format: functional, cell-based
T5 sequence (P35348 whole entry): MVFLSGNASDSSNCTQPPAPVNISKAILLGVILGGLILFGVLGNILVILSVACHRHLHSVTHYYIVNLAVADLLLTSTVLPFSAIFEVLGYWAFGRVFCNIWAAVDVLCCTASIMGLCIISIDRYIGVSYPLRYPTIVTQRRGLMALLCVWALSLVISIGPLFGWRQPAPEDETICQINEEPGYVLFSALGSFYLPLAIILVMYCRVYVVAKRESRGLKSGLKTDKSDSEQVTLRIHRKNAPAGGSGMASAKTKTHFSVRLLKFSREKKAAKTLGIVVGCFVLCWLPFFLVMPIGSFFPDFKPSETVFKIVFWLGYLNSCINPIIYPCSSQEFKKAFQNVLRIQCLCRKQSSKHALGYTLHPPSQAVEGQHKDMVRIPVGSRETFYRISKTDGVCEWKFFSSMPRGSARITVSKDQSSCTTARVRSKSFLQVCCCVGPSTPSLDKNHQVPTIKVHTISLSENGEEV
Also: assay procedure not described here.

Row | SMILES | AC50 [1] [µM] | AC50 (D(1A) dopamine receptor) [µM] | AC50 [2] [µM] | AC50 [3] [µM] | AC50 [4] [µM] | AC50 [5] [µM] | AC50 (Progesterone receptor) [µM] | AC50 (Histamine H3 receptor) [µM] | AC50 [6] [µM]
1 | COCC1=C(C(=O)OC(C)OC(=O)OC(C)C)N2C(=O)[C@@H](NC(=O)/C(=N\OC)c3csc(N)n3)[C@H]2SC1 (some centres undefined) [CEFPODOXIME PROXETIL] | > 30 | > 30 | > 30 | > 30 | > 30 | > 30 | > 30 | > 30 | 
2 | O=C(c1ccc(F)c(F)c1Nc1ccc(I)cc1F)N1CC(O)([C@@H]2CCCCN2)C1 [COBIMETINIB] | > 30 | 24.1 | 13.8 | > 30 | 7.82 | 16.9 | > 30 | > 30 | > 30
3 | NS(=O)(=O)c1cc2c(cc1Cl)NC(CC1CCCC1)NS2(=O)=O (centres undefined) [CYCLOPENTHIAZIDE] | > 30 | > 30 | > 30 | > 30 | > 30 | > 30 | > 30 | > 30 | 
4 | NS(=O)(=O)c1cc2c(cc1Cl)NC(C1CC3C=CC1C3)NS2(=O)=O (centres undefined) [CYCLOTHIAZIDE] | > 30 | > 30 | > 30 | > 30 | > 30 | > 30 | > 30 | > 30 | > 30
5 | N/N=c1/cc2c(n[nH]1)CCN(C(=O)c1ccccc1)C2 [ENDRALAZINE] | > 30 | > 30 | > 30 | > 30 | > 30 | > 30 | > 30 | > 30 | 
6 | CC(C)=CCC1C(=O)N(c2ccccc2)N(c2ccccc2)C1=O [FEPRAZONE] | > 30 | > 30 | > 30 | > 30 | > 30 | > 30 | > 30 | > 30 | 
7 | CN1C(=O)N(C)C2C1N(C)C(=O)N2C (centres undefined) [MEBICAR] | > 30 | > 30 | > 30 | > 30 | > 30 | > 30 | > 30 | > 30 | 
8 | Nc1ccc(/N=N/c2ccccc2)c(N)n1 [PHENAZOPYRIDINE] | > 30 | 9.35 | > 30 | > 30 | > 30 | 3.85 | > 30 | > 30 | 
9 | COc1cc2c(cc1OC)[C@H]1C[C@@H](OC(=O)[C@@H](N)C(C)C)[C@H](CC(C)C)CN1CC2 [VALBENAZINE] | > 30 | > 30 | > 30 |  | > 30 | > 30 | > 30 | > 30 | > 30

Reference: ChEMBL document CHEMBL5291721, “A preclinical secondary pharmacology resource illuminates target-adverse drug reaction associations of marketed drugs” (Nat Commun, 2023)
